Experiments:
[1] = test system: control sera (pooled serum of ten healthy LUMC hospital workers; commercial negative donor pooled serum from the Dutch bloodbank); type: binding, human; design: Binding of Control serum LUMC to linear peptides / Binding of Control serum Blood-bank to linear peptides / Binding of Control serum LUMC to looped peptides / Binding of Control Serum Blood-Bank to Looped peptides / Binding of Control serum LUMC to linear peptides of the protein M of SARS-CoV Urbani / Binding of Control serum Blood-bank to linear peptides of the protein M of SARS-CoV Urbani / Binding of Control serum LUMC to looped peptides of the protein M of SARS-CoV Urbani / Binding of Control Serum Blood-Bank to Looped peptides of the protein M of SARS-CoV Urbani: unit not given here
[2] = test system: antibodies in sera from SARS patients (sera 1a, 1b, 2, 6, 37, 62, London, SARS-yellow, SARS-green); type: binding, human; design: Binding of serum 6 to linear peptides of protein X1 of SARS-CoV Urbani / Binding of serum 37 to linear peptides of protein X1 of SARS-CoV Urbani / Binding of serum 6 to looped/cyclic peptide (PEPSCAN-ELISA) / Binding of serum 37 to looped/cyclic peptide (PEPSCAN-ELISA) / Binding of serum 37 to looped/cyclic peptides of protein X1 of SARS-CoV Urbani / Binding of serum 6 to linear peptides of protein X2 / Binding of serum 37 to linear peptides of protein X2 / Binding of serum 37 to looped/cyclic peptides of protein X2 of SARS-CoV Urbani / Binding of serum 6 to linear peptides of protein M of SARS-CoV Urbani / Binding of serum 37 to linear peptides of protein M of SARS-CoV Urbani / Binding of serum 6 to looped/cyclic peptides of protein M of SARS-CoV Urbani / Binding of serum 37 to looped/cyclic peptides of protein M of SARS-CoV Urbani / Binding of serum 6 to linear peptides of protein X3 of SARS-CoV Urbani / Binding of serum 37 to linear peptides of protein X3 of SARS-CoV Urbani / Binding of serum 37 to looped/cyclic peptides of protein X3 of SARS-CoV Urbani / Binding of serum 6 to linear peptides of protein X4 of SARS-CoV Urbani / Binding of serum 37 to linear peptides of protein X4 of SARS-CoV Urbani / Binding of serum 37 to looped/cyclic peptides of protein X4 of SARS-CoV Urbani / Binding of serum 6 to linear peptides of protein X5 of SARS-CoV Urbani / Binding of serum 37 to linear peptides of protein X5 of SARS-CoV Urbani / Binding of serum 37 to looped/cyclic peptides of protein X5 of SARS-CoV Urbani / Binding of serum 6 to linear peptides of protein N of SARS-CoV Urbani / Binding of serum 37 to linear peptides of protein N of SARS-CoV Urbani / Binding of serum 6 to linear peptide (PEPSCAN-ELISA) / Binding of serum 1a to looped/cyclic peptides of protein N of SARS-CoV Urbani / Binding of serum 1b to looped/cyclic peptides of protein N of SARS-CoV Urbani / Binding of serum 2 to looped/cyclic peptides of protein N of SARS-CoV Urbani / Binding of serum 6 to looped/cyclic peptides of protein N of SARS-CoV Urbani / Binding of serum 37 to looped/cyclic peptides of protein N of SARS-CoV Urbani / Binding of serum 62 to looped/cyclic peptides of protein N of SARS-CoV Urbani / Binding of serum London to looped/cyclic peptides of protein N of SARS-CoV Urbani / Binding of serum SARS-green to looped/cyclic peptides of protein N of SARS-CoV Urbani: unit not given here
[3] = test system: rabbit serum obtained by immunizing a rabbit with the SARS-CoV strain Frankfurt 1; type: binding; design: Binding of a rabbit serum to linear peptides / Binding of a rabbit serum to looped peptides / Rabbit serum linear peptides / Rabbit serum looped peptides / Binding of a rabbit serum to linear peptides of protein N of SARS-CoV Urbani (Rabbit serum linear peptides) / Binding of a rabbit serum to looped/cyclic peptides of protein N of SARS-CoV Urbani (Rabbit serum looped peptides): unit not given here
[4] = test system: recombinant human anti-SARS-CoV antibody 03-018; type: binding; design: Binding of antibody 03-018 to linear peptides of the N protein of SARS-CoV Urbani / Binding of antibody 03-018 to looped/cyclic peptides of the N protein of SARS-CoV Urbani: unit not given here

| Sequence | Binding of serum 1a to linear peptides of protein N of SARS-CoV Urbani [2] | Binding of serum 1a to looped/cyclic peptides of protein N of SARS-CoV Urbani [2] | Binding of serum 1b to linear peptides of protein N of SARS-CoV Urbani [2] | Binding of serum 1b to looped/cyclic peptides of protein N of SARS-CoV Urbani [2] | Binding of serum 2 to linear peptides of protein N of SARS-CoV Urbani [2] | Binding of serum 2 to looped/cyclic peptides of protein N of SARS-CoV Urbani [2] | Binding of serum 6 to linear peptides of protein N of SARS-CoV Urbani [2] | Binding of serum 6 to looped/cyclic peptides of protein N of SARS-CoV Urbani [2] | Binding of serum 37 to linear peptides of protein N of SARS-CoV Urbani [2] | Binding of serum 37 to looped/cyclic peptides of protein N of SARS-CoV Urbani [2] | Binding of serum 62 to linear peptides of protein N of SARS-CoV Urbani [2] | Binding of serum 62 to looped/cyclic peptides of protein N of SARS-CoV Urbani [2] | Binding of serum London to linear peptides of protein N of SARS-CoV Urbani [2] | Binding of serum London to looped/cyclic peptides of protein N of SARS-CoV Urbani [2] | Binding of serum SARS-green to linear peptides of protein N of SARS-CoV Urbani [2] | Binding of serum SARS-green to looped/cyclic peptides of protein N of SARS-CoV Urbani [2] | Binding of serum SARS-yellow to linear peptides of protein N of SARS-CoV Urbani [2] | Binding of serum SARS-yellow to looped/cyclic peptides of protein N of SARS-CoV Urbani [2] | Binding of a rabbit serum to linear peptides of protein N of SARS-CoV Urbani (Rabbit serum linear peptides) [3] | Binding of a rabbit serum to looped/cyclic peptides of protein N of SARS-CoV Urbani (Rabbit serum looped peptides) [3] | further results |
| --- | --- | --- | --- | --- | --- | --- | --- | --- | --- | --- | --- | --- | --- | --- | --- | --- | --- | --- | --- | --- | --- |
| LQNSMSGASADSTQA | 0.2 | 0.2 | 0.1 | 0.1 | 0.1 | 0.4 | 0.2 | 0.0 | 0.6 | 0.5 | 0.4 | 0.1 | 0.6 | 0.1 | 0.4 | 0.0 | 0.6 | 0.0 | 0.9 | 0.4 | Control Serum Blood-Bank Looped peptides [1]: 0.0; Control serum Blood-bank linear peptides [1]: 0.7; Control serum LUMC linear peptides [1]: 0.5; Control serum LUMC looped peptides [1]: 0.2; Binding of antibody 03-018 to linear peptides of the N protein of SARS-CoV Urbani [4]: 0.2; Binding of antibody 03-018 to looped/cyclic peptides of the N protein of SARS-CoV Urbani [4]: 0.2 |
| LRFPRGQGVPINTNS | 0.2 | 0.3 | 0.1 | 0.2 | 0.3 | 0.4 | 0.2 | 0.2 | 0.6 | 0.6 | 0.6 | 0.4 | 0.5 | 0.4 | 0.4 | 0.6 | 0.5 | 0.4 | 0.2 | 0.6 | Binding of Control Serum Blood-Bank to Looped peptides [1]: 0.6; Binding of Control serum Blood-bank to linear peptides [1]: 0.7; Binding of Control serum LUMC to linear peptides [1]: 0.7; Binding of Control serum LUMC to looped peptides [1]: 0.6; Binding of antibody 03-018 to linear peptides of the N protein of SARS-CoV Urbani [4]: 0.1; Binding of antibody 03-018 to looped/cyclic peptides of the N protein of SARS-CoV Urbani [4]: 0.2 |
| LSPRWYFYYLGTGPE | 0.3 | 0.3 | 0.3 | 0.3 | 0.2 | 0.5 | 0.2 | 0.2 | 1.0 | 0.8 | 0.9 | 0.8 | 0.5 | 0.3 | 0.9 | 0.6 | 0.6 | 0.5 | 0.2 | 1.1 | Binding of Control Serum Blood-Bank to Looped peptides [1]: 0.5; Binding of Control serum Blood-bank to linear peptides [1]: 0.7; Binding of Control serum LUMC to linear peptides [1]: 0.8; Binding of Control serum LUMC to looped peptides [1]: 0.6; Binding of antibody 03-018 to linear peptides of the N protein of SARS-CoV Urbani [4]: 0.1; Binding of antibody 03-018 to looped/cyclic peptides of the N protein of SARS-CoV Urbani [4]: 0.2 |

From patent US20070128217A1 (priority 2003, published 2007)
